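Compound exposure: 48 hours, 5 concentrations, 96-well plates. At the GI50, growth is halved. TGI: concentration producing complete growth inhibition.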
Assays:
Assay in all cases: NCI tumour cell line growth inhibition, 48 h
NCI-H460 lung = system: NCI-H460 lung
OVCAR-4 ovarian = system: OVCAR-4 ovarian
786-0 renal = system: 786-0 renal
HCT-15 colon = system: HCT-15 colon
T-47D breast = system: T-47D breast
UO-31 renal = system: UO-31 renal
HT29 colon = system: HT29 colon
HCT-116 colon = system: HCT-116 colon
UACC-62 melanoma = system: UACC-62 melanoma
SF-539 CNS = system: SF-539 CNS

SMILES | GI50 (NCI-H460 lung) [µM] | TGI (NCI-H460 lung) [µM] | GI50 (OVCAR-4 ovarian) [µM] | TGI (OVCAR-4 ovarian) [µM] | GI50 (786-0 renal) [µM] | TGI (786-0 renal) [µM] | GI50 (HCT-15 colon) [µM] | TGI (HCT-15 colon) [µM] | GI50 (T-47D breast) [µM] | TGI (T-47D breast) [µM] | GI50 (UO-31 renal) [µM] | TGI (UO-31 renal) [µM] | GI50 (HT29 colon) [µM] | TGI (HT29 colon) [µM] | GI50 (HCT-116 colon) [µM] | TGI (HCT-116 colon) [µM] | GI50 (UACC-62 melanoma) [µM] | TGI (UACC-62 melanoma) [µM] | GI50 (SF-539 CNS) [µM] | TGI (SF-539 CNS) [µM]
COC(=O)c1ccc2c(c1)nc(NC(=O)c1ccccc1)n2CCCc1ccccc1 | 1.22 | > 100 | 2.93 | > 100 | 4.77 | > 100 | 1.89 | > 100 | 4.35 | > 100 | 4.07 | > 100 | 6.92 | > 100 | 3.06 | > 100 | 2.49 | > 27 | 3.8 | > 100
Nc1nn2cc(F)cnc2c1C(=O)Nc1cncc(F)c1N1CCC(C(=O)N2CCN(C3COC3)CC2)CC1 | 0.254 | 7.2 | 0.326 | 7.86 | 0.277 | > 100 | 0.165 | 4.13 | 2.04 | > 100 | 0.284 | 2.62 | 0.452 | > 100 | 0.942 | > 29.6 | 0.522 | 2.56 | 0.164 | 0.571
COc1cccc(CC(C)=C(c2ccc(OCCN(C)C)cc2)c2ccc(OCCN(C)C)cc2)c1 | 2.83 | 7.38 | 3.53 | 8.16 | 0.606 | 1.27 | 0.974 | 3.6 | 0.681 | 1.77 | 3.55 | 7.57 | 0.706 | 1.91 | 0.644 | 1.5 | 0.689 | 1.5 | 0.589 | 1.1
CC(=O)OC1COC(Oc2c(C)c3c4c(c2O)[C@@H](C)CC[C@@H]4[C@@H](C)C[C@H]3C=C(C)C)C(O)C1OC(C)=O (stereo not given in full) | 8.36 | > 100 | 21.6 | 49.3 | 16.4 | 31.8 | 5.76 | 21.2 | 20.1 | 56.4 | 17.3 | 40.9 | 25.6 | 74.4 | 10.8 | 23.4 | 15.1 | 28.9 | 22.4 | 42.6
Cn1c(I)c(C#CCO[Si](C)(C)C(C)(C)C)c(=O)[nH]c1=O | 53.8 | > 100 | 10.1 | 27.4 | 18.6 | 33.2 | 13.5 | 27.6 | 2.92 | 15 | 14.6 | 28.6 | 20.9 | 39.7 | 14.3 | 28.5 | 17.2 | 32.2 | 16.9 | 30.9
COc1cc(Nc2ncccc2C(=O)NCc2cn(Cc3cccc(Oc4ccccc4)c3)nn2)cc(OC)c1 | 3.98 | > 100 | 5.42 | > 100 | 6.73 | > 100 | 3.89 | > 100 | 4.58 | > 100 | 5.25 | > 100 | 3.88 | > 100 | 4.34 | > 100 | 3.68 | > 100 | 4.39 | > 100
CCN1CCN(C(=O)[C@@]2(C)CC[C@]3(C)CC[C@]4(C)C(=CC(=O)[C@@H]5[C@@]6(C)CC[C@H](OC7C[C@@H](O)[C@@H](O)C(C)O7)C(C)(C)[C@@H]6CC[C@]54C)[C@@H]3C2)CC1 (stereo not given in full) | 0.948 | 1.86 | 1.27 | 3.08 | 0.933 | 1.82 | 2.21 | 8.67 | 9.57 | 23.1 | 0.757 | 1.53 | 1.08 | 2.59 | 1.65 | 5.74 | 0.892 | 1.75 | 0.937 | 1.85
COc1ccccc1/C=N\N/C(N)=N\N=C\c1ccccc1OC | 0.348 | 4.37 | 1.05 | > 100 | 0.609 | 5.01 | 0.465 | > 37.5 | 0.457 | 7.36 | 2.31 | > 23.1 | 0.382 | > 55.8 | 0.358 | 5.55 | 0.497 | > 40.7 | 0.264 | 1.02
COc1cc(-c2oc(=O)ccc2C#Cc2ccccn2)cc(OC)c1OC | 2.6 | > 54.2 | 9.65 | > 100 | 4.47 | > 100 | 1.54 | > 100 | 3.46 | > 41.8 | 3.22 | > 100 | 0.607 | > 21 | 2.75 | > 100 | 1.82 | > 20.1 | 3.03 | 13.8
CNCc1ccccc1-c1csc([C@@H](C)Nc2nc(C)nc3cc(OC)c(OC)cc23)c1 | 2.03 | 4.16 | 2.4 | 10.7 | 1.52 | 2.87 | 1.61 | 3.55 | 1.85 | 4.1 | 1.23 | 2.48 | 1.71 | 4.33 | 1.71 | 3.41 | 1.84 | 3.43 | 1.5 | 2.94
O=C(O)c1nnsc1-c1ccc(-c2snnc2C(=O)O)cc1 | – | > 100 | – | > 100 | – | > 100 | – | > 100 | – | > 100 | – | > 100 | – | > 100 | – | > 100 | – | > 100 | – | 69.7
COc1ccc(Sc2[nH]c(C(C)=O)c3ccccc23)cc1 | 7.41 | 20.6 | 13.3 | 32 | 16.5 | 34.8 | 11.5 | 31 | 8.41 | 36 | 5.84 | 23.4 | 15.4 | 30.7 | 12 | 24.3 | 10.3 | 22 | 14.5 | 27.6

Source: PubChem BioAssay (NCI)
